The text below walks through data of PubChem BioAssay (NCI).

Holding throughout (test): growth of human tumour cells (NCI), 48 h
In assay [1] the test system is MALME-3M melanoma.
Assay [2] concerns RXF 393 renal.
Assay [3] relates to HCC-2998 colon.
Assay [4] has as its system SF-539 CNS.
For assay [5], the system named is CCRF-CEM leukemia.
In assay [6] the test system is HOP-62 NSCLC.
Assay [7] deals with SN12C renal.
Assay [8] relates to DU-145 prostate.
The subject of assay [9] is KM12 colon.
The subject of assay [10] is SW-620 colon.

“And” between values parts separate entries of the source, which are not always exact repeats. Equal values may be shown once.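 Cells were grown in 96-well plates and exposed to each compound for 48 hours at five concentrations; endpoints were interpolated linearly between bracketing concentrations, or set to the highest concentration if not reached. At the GI50, growth is halved. The concentration for full growth arrest is given as TGI.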

Turning to `O=c1c(Cl)nsnc1Cl`, the TGI stood at 84.5 µM in [1]; 24.8 µM in assay [2]; 35.2 µM in [3]; 28.1 µM in assay [4]; 3.27 µM in assay [5]; 34.5 µM in assay [6]. Further, the TGI was 48.4 µM in [7], 31.5 µM in assay [8], more than 57.8 µM in assay [9] and 31.5 µM in [10].
For the molecule `COc1c(O)c2ccccc2c2cc(O)ccc12`, the TGI in [1] is 3.18 µM; in assay [2] it was 22.9 µM; in [3], 32.7 µM; in assay [4], 9.88 µM; in assay [5], 73.8 µM; in [6] it was 31.3 µM. Further, the TGI in assay [7] is 14.1 µM; in [8], 21 µM; in [9], 25.7 µM; in assay [10], 6.69 µM.
On to `O=C(CCCCCCc1nc2ccc(Br)cc2[nH]1)NO`, for which the GI50 in [1] was 203 nM; in assay [2], 240 nM; in assay [3] it was 777 nM; in assay [4] it was 970 nM; in [5], 405 nM; in [6], 632 nM. Moreover, the GI50 is 1300 nM in assay [7], 621 nM in assay [8], 377 nM in [9] and 266 nM in assay [10]. Further, the TGI in assay [1] is 0.813 µM; in assay [2] it was 0.813 µM; in [3], 3.08 µM; in [4], 31.3 µM; in assay [5] it was more than 100 µM; in assay [6], 14.6 µM. Also, the TGI was more than 35.5 µM in assay [7], 5.84 µM in assay [8], 4.18 µM in assay [9] and 1.04 µM in [10].
Take `Cc1ccc(CCC(=O)Nc2ncc(Cc3cc(Cl)ccc3Cl)s2)o1`: the GI50 in [1] was 945 nM; in assay [2], 256 nM; in [3] it was 312 nM; in assay [4] it was 218 nM; in assay [5] it was 197 nM; in assay [6], 380 nM. The GI50 in assay [7] is 489 nM; in assay [8], 351 nM; in [9], 96.6 nM; in assay [10] it was 69.4 nM. Moreover, the TGI in assay [1] was more than 100 µM; in assay [2], 1.75 µM; in assay [3], 6.41 µM; in [4], 0.712 µM; in assay [5] it was more than 100 µM; in [6] it was 15.1 µM. In addition, the TGI in [7] was 11.1 µM; in assay [8] it was more than 32.9 µM; in assay [9], more than 36.3 µM; in [10], more than 100 µM.
For the molecule `C1=C[C@@H]2c3ccc4cnccc4c3NC[C@@H]2C1`, the TGI in assay [1], in [2], in assay [3], in [4], in [5] and in [6] was more than 100 µM in each case. The TGI in assay [7], in assay [8], in [9] and in assay [10] was more than 100 µM in each case.
In the case of `O=C(Cn1ccnc1[N+](=O)[O-])NCCO`, the TGI in assay [1], in [2], in assay [3], in assay [4], in assay [5] and in [6] was more than 100 µM throughout. Besides, the TGI in [7], in [8], in assay [9] and in [10] was more than 100 µM throughout.
Turning to `Cc1cc(Cl)n2c(nc3ccccc32)c1C#N`, the GI50 is 858 nM in assay [1]; 854 nM in assay [2]; 727 nM in assay [3]; 576 nM in assay [4]; 48.5 nM in assay [5]; 572 nM in assay [6]. Besides, the GI50 was 499 nM in assay [7], 339 nM in assay [8], 341 nM in [9] and 55 nM in assay [10]. Moreover, the TGI stood at 2.63 µM in assay [1]; 2.66 µM in assay [2]; 2.31 µM in [3]; 7.86 µM in [4]; 3.45 µM in [6]; 8.33 µM in [7]. Further, the TGI amounted to 1.2 µM in [8], 1.44 µM in assay [9] and 1.79 µM in [10].
With `Cc1cc2c(-c3nc4ccccc4[nH]3)c(O)c(O)cc2c(O)c1-c1c(C)cc2c(-c3nc4ccccc4[nH]3)c(O)c(O)cc2c1O`, the GI50 is 32.1 nM in assay [1]; 43.4 nM in [2]; 36.2 nM in assay [3]; 34.4 nM in assay [4]; 11.3 nM in [5]; 71.7 nM in assay [6]. Also, the GI50 in assay [7] is 27.2 nM; in [8] it was 20.5 nM; in assay [9] it was 17 nM; in [10], 20.9 nM. In addition, the TGI in [1] was 2.26 µM; in assay [2], 3.56 µM; in [3], 8.65 µM; in assay [4] it was 0.494 µM; in [5], more than 50 µM; in assay [6], 0.864 µM. Also, the TGI is 8.08 µM in [7], 10.1 µM in assay [8], 0.775 µM in assay [9] and more than 22 µM in assay [10].
In the case of `O=C(Nc1ccc(Cl)cc1)NS(=O)(=O)c1ccc2c(c1)CCC2`, the GI50 is 13.7 µg/mL in assay [1]; 2.52 µg/mL in [2]; 17.3 µg/mL in assay [3]; 17.6 µg/mL in [4]; 10.5 µg/mL in assay [5]; 20.3 µg/mL in assay [7]. Further, the GI50 in [9] was 19.1 µg/mL; in assay [10] it was 10.6 µg/mL. Moreover, the TGI in assay [1] is > 71.3 µM and 38.2 µg/mL; in assay [2], 79.3 µM and 22.8 µg/mL; in [3] it was > 77.6 µM and 36.8 µg/mL; in assay [4], > 69.2 µM and 37 µg/mL; in assay [5] it was > 100 µM and 57.4 µg/mL; in assay [6], more than 100 µM. Besides, the TGI in [7] is > 100 µM and 43.1 µg/mL; in [8], 92 µM; in assay [9] it was 98.9 µM and 40.2 µg/mL; in assay [10], > 100 µM and 33.6 µg/mL.
